Source: US9975852B2, “Quinoline sulfonyl derivatives and uses thereof” (Health Sciences North Research Institute, priority 2013, dated 2018)

How the values were obtained:
Jurkat = test: SRB antiproliferative assay, Jurkat; type: cell-based; conditions: Homo sapiens
Method: Antiproliferative effects were determined by a sulforhodamine B (SRB) based protocol. For a typical screening experiment, 5,000-10,000 cells were inoculated into 100 μl medium per well of a 96-well microtiter plate as described previously. Briefly, after the inoculation, the microtiter plate was incubated at 37° C., 5% CO2, 95% air and 100% relative humidity for 24 h, prior to addition of experimental drugs. Some of the sample wells were fixed with 25 μl of 50% trichloroacetic acid (TCA) as a control of the cell population for each cell line at the time of drug addition (Tz). An aliquot of the frozen stock was thawed and diluted to the desired final maximum test-concentration with complete medium. […] The cells “stained” with SRB were solubilized with 10 mM trizma base, and the absorbance was read on an automated plate reader at a wavelength of 515-564 nm. The relative growth rate (%) was calculated for each of the compound concentrations according to the following formula: (Ti−Tz)/(C−Tz)×100 In the formula, time zero (Tz), control growth (C), and OD for different concentration of tested compounds (Ti). […] Values were calculated for each of these parameters if the level of activity was reached. However, if the effect was not reached or was exceeded, the value for that parameter was expressed as greater or less than the maximum or minimum concentration tested. […]

HeLa S3 cells = test: Western blot, immunostaining and immunoprecipitation of cell cycle proteins, HeLa S3 cells; type: cell-based
From the text: All immunocytochemistry experiments were visualized by confocal microscopy using a Zeiss 510 Meta laser scanning microscope (Carl Zeiss) equipped with a 63× objective lens, unless otherwise specified herein. Three lasers were utilized for excitation with the following band pass filter settings used for detection: Argon 488 nm (band pass 505-530), HeNe 543 nm (long pass 560) and 633 nm (long pass 650). All images were captured and analyzed using LSM 510 software included with the microscope (LSM Image Examiner™, Carl Zeiss).
The synchronization at the G1/S border (more accurately at the beginning of S phase) was achieved by double thymidine block (DT). Briefly, exponentially growing cells are treated with 2.0 mM thymidine for 18 hours, followed by incubation for 11 hours in drug-free complete medium, by which time most cells are at mid-late G1 phase. The cells are then incubated for another 14 hours in 2.0 mM thymidine to arrest them at the G1/S border. To arrest cells at the G2/M phase, cells were maintained for 18 hours in complete medium containing nocodazole (50 ng/ml). Both these synchronization are reversible.
Under the experimental conditions, some of the cells were still stuck at G2/M until 8 hour post-drug treatment. “Asynchr” denotes asynchronous cells. 0 hour is the end of nocodazole treatment (i.e., 18 hours in 50 ng/ml nocodazole). At 0 hour, cells were released into complete medium in the absence (control) or presence of 5 μM VR-23 for 2, 4, or 8 hours as indicated. […] Extracts prepared from HeLa S3 cells treated with VR-23 in early-S phase (0 hour post double thymidine treatment), G2/M (arrested by nocodazole), or late G1 (6 hour post nocodazole) were subjected to Western blotting with anti-PARP1 antibody to detect proteins associated with apoptotic activities.
Evaluation of apoptosis in VR-23 treated and untreated control cells (FIG. 8). Treatment of cells in late G1 with VR-23 delayed their progression into S phase. HeLa S3 cells arrested in G2-M phase by nocodazole (50 ng/ml, 18 hours) were incubated in drug-free complete medium for 2, 4 or 6 hours (numbers in brackets), followed by incubation for 2 or 6 hours (+h) in the absence (control) (FIG. 8A) or presence (FIG. 8B) of 10 μM VR-23. […] By (6)+6 hours, most of the control cells already progressed into S phase, but VR-23-treated cells were still in G1 (long and short arrows, respectively). […] Under normal growth conditions, cyclin E expression peaks in late G1 and rapidly levels off as a cell enters S phase, at which time cyclin A expression rapidly increases. […] Thus cells treated with VR-23 were still in G1 phase because cyclin E was not degraded and cyclin A was not induced in a timely manner.
HeLa S3 cells arrested at G1/S by DT were released into cell cycle for 1-3 hours in the absence (control) (FIG. 16A) or presence (FIG. 16B) of VR-23. Cells were then fixed and immunostained with antibodies specific for γ-tubulin and cyclin E, or DNA stained. […] In contrast, cyclin E was localized to the centrosomes by 3 hour post-DT in cells exposed to VR-23 (see inset boxes of FIG. 16B). […] It is noted that proteasomes are localized to the centrosomes^12,13.
HeLa S3 cells synchronized at the G1/S border by DT were released into cell cycle at time 0 hour. Cells were then allowed to progress through S phase for 1 hour (FIG. 17A) or 3 hours (FIG. 17B) in the absence (control) or presence of VR-23. Plk1 was not localized to the centrosome at 1 hour post-DT either in VR-23 treated or untreated control cells. However, unlike in the control, all of the (amplified) centrosomes in cells exposed to VR-23 contained Plk1 by 3 hour post-DT. It was occasionally observed that one of the two centrosomes in untreated cells also contained plk1 at 3 hour post-DT (dotted arrow).
HeLa S3 cells synchronized at G1/S by DT were released into normal growth medium at 0 hour for 1-3 hours in absence (control) (FIG. 18A) or the presence (FIG. 18B) of VR-23. […]

[1] = 10 μM VR-23 after nocodazole release
[2] = released from DT for 1-3 hours with VR-23

Structure (SMILES): O=[N+]([O-])c1ccc(S(=O)(=O)N2CCN(c3ccnc4cc(Cl)ccc34)CC2)c([N+](=O)[O-])c1 [Compound 1, 7-Chloro-4-(4-(2,4-dinitrophenylsulfonyl)piperazin-1-yl)quinoline]
- IC50 (Jurkat): 800 ± 100 nM
- Levels of cyclins B and E (HeLa S3 cells; 10 μM VR-23, 2 hour post-treatment): higher in the VR-23 treated cells than the control
- Levels of cyclin E and cyclin A (Western blot) (HeLa S3 cells; 10 μM VR-23, (6)+6 hours): a high level of cyclin E and a lack of detectable cyclin A
- Cell cycle arrest (immunoprecipitation) (HeLa S3 cells; [1]): caused cell cycle arrest prior to mitotic checkpoint
- Cell cycle arrest point and Cdk1 status (HeLa S3 cells; [1]): arrested at prometaphase through the inactivation of Cdk1
- PARP1 cleavage (Western blot) (HeLa S3 cells; VR-23 in early-S, G2/M or late G1): showed PARP1 cleavage
- Centrosomal localization of Plk4 (HeLa S3 cells; [2]): disrupted
- Cyclin E localization (HeLa S3 cells; [2]): localized to the centrosome by 3 hour post-DT
- Plk1 localization (HeLa S3 cells; released from DT for 1 or 3 hours with VR-23): localized to the centrosome by 3 hour post-DT
